The numbers were not newly measured in US20140011766A1, “ANTIMICROBIAL COMPOSITIONS AND METHODS” (priority 2012, published 2014), which cites them from elsewhere.

The structures appear in SMILES notation.

For the series, the system named is pathogens. The settings on record: except for spores (specifically C. difficile spores).

For `CCO` [Ethanol], the killing of pathogens is recorded as 99.99%.
